Experimental findings from patent US20250041377A1, “PHARMACEUTICAL USE” (ENLITISA (SHANGHAI) PHARMACEUTICAL CO., LTD., priority 2018, published 2025) are described below.

Each structure is given as a SMILES string. Where a name gives a salt, the structure may show the parent alone.

The test system of experiment [1] is bleomycin-induced pulmonary fibrosis. Kind of experiment: Idiopathic pulmonary fibrosis (IPF) model. Format: in vivo, Sprague Dawley rats. As to conditions: Day 29. As to the method:
Experimental animals and grouping: 40 adult male Sprague Dawley rats, after 7 days of adaptive feeding, were divided into 4 groups: sham-operation group (Sham), IPF model group (no treatment; Model), test group (Compound B) and positive control group (Positive Control).
The test were administered Compound B, at a dose of 130 μg/rat, which was introduced by aerosolized inhalation. Oral administration of pirfenidone (Etuary®, Beijing Continent Pharmaceutical Co., Ltd., Beijing, China) as a 120 mg/kg single-bolus dose served as the positive control.
A pulmonary fibrosis model was established by intratracheal instillation of bleomycin. The rats were anaesthetised and placed on an operating table in the supine position, to expose the trachea. Bleomycin (5 mg/kg) saline solution was injected into the trachea through the gap between the tracheal cartilage rings. The sham-operation group were given an equal volume of normal saline. Shortly after administration, the rats were lifted vertically and were rotated, in order to evenly disperse the drug. Once the rats had recovered, after approximately 5 days, they were administrated the different drugs according to the plan for 28 days, consecutively.
The exhaust volume of the atomizing device was 0.15 mL per minute. The inhalation time for each rat was 1 minute.
At Day 29 following drug administration, rats were anesthetized by i.p. injection of chloral hydrate. After orbital blood collection, the rats were sacrificed. The thoracic cavity was quickly opened and the lung was collected for further analysis. The lung wet weight was measured, and the lung coefficient was calculated (lung wet weight/rat weight×1000). The tissue was stored in refrigerator at −80° C. for further use.
A piece of lung tissue was accurately weighed, and 9 times the weight of saline was added. Then, the tissue was homogenized and centrifuged for 10 minutes at 3000 rpm. The homogenate was used to detect the expression of the transformation growth factor (TGF-β1), tumor necrosis factor-α (TNF-α) and alpha-smooth muscle actin (α-SMA). Standard ELISA methods were used for the detection. The contents of malonaldehyde (MDA) and the activity of superoxide dismutase (SOD) in lung tissue were also detected.

In experiment [2] the test system is ammonia induced cough. The experiment in a line: Antitussive experiment, ammonia induced cough method. In kind it is in vivo, ICR mice. The method, then: 36 ICR mice were randomly divided into 3 groups according to their body weight, labelled a CMC-Na (Negative) control group, a dextromethorphan hydrobromide (Positive) control group and a Compound B (B) group. Each group contained 12 mice, with 6 males and 6 females in each.
Compound B was administered via atomization inhalation using a YLS-8A Multifunctional cough and sputum inducing device (Jinan Yiyan Science and Technology Co., Ltd.) (0.15 ml/min) for 1 minute, once daily for 5 days. And the positive control drug was administered once daily by intragastric administration at 10 mg/kg for 5 days.
The mice were placed in an inverted beaker 1, 2, and 4 hours after the last drug administration. 1 mL of aqueous ammonia (25.0 to 28.0%) was placed on top of a boiling water bath and was evaporated into the beaker.
The time for mice to receive ammonia exposure was determined by a method characterized by analyzing data immediately after one test or a batch of tests. The results of the previous analysis determined how to conduct the next test or batch of tests.
The difference between the logarithmic value of two adjacent time periods was 0.1.
The number of coughs within 1 minute was detected using a stethoscope. If a mouse coughed three or more times over one minute, this was labelled as called ‘cough’, and less than three times in one minute was labelled ‘cough free’.
The EDT50 was defined as the ammonia stimulating time at which half mice developed a “cough”, calculated by the equation: […]
(c equals the sum of r and x, r is the number of animals in each stimulating time group, x is the logarithm of stimulation time and n was the number of animals in each group). lg is a base 10 logarithmic value.
In Table 15, R is the EDT50 in treatment group divided by the EDT50 in the Control group expressed as a percentage.

Setting [3] is: lung tissue homogenate, Compound B 130 μg/rat aerosolized inhalation, pirfenidone gavage, 28 days.

In experiment [1] (setting [3]), `Cc1ccc(=O)n(-c2ccccc2)c1` [Positive Control, pirfenidone, reference compound] displayed a TGF-β1 of 0.41 ± 0.03 ng/mg protein, a TNF-α of 208.41 ± 17.73 pg/mg protein and a α-SMA of 10.98 ± 0.93 pg/mg protein. In experiment [1] (lung tissue), this molecule yielded an MDA of 0.24 ± 0.05 U/mg protein and an SOD of 48.59 ± 2.36 U/mg protein.

On to `COc1ccc2c(c1)[C@]13CCCC[C@@H]1[C@H](C2)N(C)CC3` [Positive, dextromethorphan hydrobromide, reference compound], for which the R in experiment [2] (1 hour after admin., EDT50 in treatment group divided by EDT50 in Control group) is reported as 241.7%; in experiment [2] (2 hours after admin., EDT50 treatment/Control) it was 207.3%; in experiment [2] (4 hours after admin., EDT50 treatment/Control) it was 184.8%. Also, the EDT50 in experiment [2] (1 hour after last administration, B 195 μg/mouse atomization inhalation, Positive 10 mg/kg intragastric, once daily 5 days) was 50.1 s; in experiment [2] (2 hours after last administration) it was 44.7 s; in experiment [2] (4 hours after last administration) it was 41.4 s.
